Data reported in publication PMC5137965 (Future Science OA, 2016).

How the values were obtained:
[1] = cited from earlier work
[2] = Stability of spiked human plasma QC samples (bench top, freeze-thaw, autosampler, long-term); assay type: in vitro ADME; conditions: for Auto sampler stability (100.87 h), %Nominal, stability QC samples: processed samples
[3] = Stock and working solution stability; assay type: physicochemical; conditions: for Short-term stability, %Stability: 8.46 h at room temperature; for Stock solution stability, %Stability: 21 days, stock solutions in methanol stored at refrigerator temperature 1–10°C; for working solutions found stable for: room temperature
Protocol: Separate stock solutions were used to prepare calibration curve (CC) standards and quality (QC) control samples. The prepared stock solutions were protected from light and stored in refrigerator between 1–10°C until use. A fresh working solution of IS (1500.00 ng/ml) was prepared everyday by taking appropriate dilution of the stock solution in methanol:water (50:50 v/v).
Stock solution stability of both analyte and internal standard was carried out for 21 days at refrigerated temperature (1–10°C). Short-term stability both analyte and internal standard was carried out for 8.46 h at room temperature.

[4] = Blood stability (sample collection process stability) at room temperature; assay type: in vitro ADME, human; conditions: 2.45 h at room temperature
[5] = human plasma, low concentration QC

**Q.** Which permeability ([1]; inferred from almost complete oral absorption) does the source give for `Cc1ccc(NC(=O)c2ccc(CN3CCN(C)CC3)cc2)cc1Nc1nccc(-c2cccnc2)n1` [imatinib] here?
**A.** Its permeability is “high permeability”.

**Q.** What about the Tmax ([1]; oral) of the same compound?
**A.** Its Tmax is 2 to 4 h.

**Q.** And the “processed samples stable in auto sampler for” value ([2]; at 10°C)?
**A.** The value was 100.87 h.

**Q.** And the “Bench top stability during extraction (9.60 h), %Nominal, stability QC samples” value ([2]; high concentration QC)?
**A.** The value was 98.96%.

**Q.** What about the “bench top stability in matrix” value ([2]; human plasma, 6.15 h) of the same compound?
**A.** The value was 97.75 to 100.23%.

**Q.** And the “comparative freeze-thaw stability at the end of third freeze and thaw cycle” value ([2]; human plasma, below -15°C and below -50°C)?
**A.** The value was 97.45 to 101.41%.

**Q.** What about the “Freeze thaw stability (three freeze thaw cycles, below -50°C), %Nominal, stability QC samples” value ([2]; human plasma, high concentration QC) of the same compound?
**A.** Its value is 102.3%.

**Q.** And the “Bench top stability in matrix (6.15 h), %Nominal, stability QC samples” value [2, 5]?
**A.** The value was 96.03%.

**Q.** And the “Freeze thaw stability (three freeze thaw cycles, below -15°C), %Nominal, stability QC samples” value [2, 5]?
**A.** The value was 97.16%.

**Q.** And the “Freeze thaw stability (three freeze thaw cycles, below -50°C), %Nominal, stability QC samples” value [2, 5]?
**A.** The value was 97.03%.

**Q.** And the “Bench top stability during extraction (9.60 h), %Nominal, stability QC samples” value ([2]; low concentration QC)?
**A.** The value was 94.80%.

**Q.** What about the “Auto sampler stability (100.87 h), %Nominal, stability QC samples” value ([2]; high concentration QC) of the same compound?
**A.** Its value is 102.61%.

**Q.** What about the “Auto sampler stability (100.87 h), %Nominal, stability QC samples” value ([2]; low concentration QC) of the same compound?
**A.** Its value is 98.34%.

**Q.** And the “Short-term stability, %Stability” value [3]?
**A.** Its value is 101.88%.

**Q.** And the “Stock solution stability, %Stability” value [3]?
**A.** The value was 101.63%.

**Q.** What about the “working solutions found stable for” value [3] of the same compound?
**A.** Its value is 16 h.

**Q.** What about the “stock solution found stable for” value ([3]; stored in refrigerator between 1 and 10°C) of the same compound?
**A.** Its value is 21 days.

**Q.** And the “%Stability” value ([4]; HQC)?
**A.** The value was 99.27%.

**Q.** What about the “%Stability” value ([4]; LQC) of the same compound?
**A.** The value was 100.72%.

**Q.** With `[2H]c1c([2H])c(C(=O)Nc2ccc(C)c(Nc3nccc(-c4cccnc4)n3)c2)c([2H])c([2H])c1CN1CCN(C)CC1` [imatinib-D4] as the compound, how does the “Short-term stability, %Stability” value [3] read?
**A.** The value was 100.96%.

**Q.** What about the “Stock solution stability, %Stability” value [3] of the same compound?
**A.** The value was 99.15%.

**Q.** And the “working solutions found stable for” value [3]?
**A.** The value was 16 h.
